We go through 49 compounds from publication PMC5653977 (EMBO Molecular Medicine, 2017).

Structures can show the parent of a compound that is named as a salt. Where two headings read alike, the source gives them in different places.

For the experiment, the system named is NRG1-ERBB4 signaling. Put plainly: Nrg1-ERBB4-PIK3R1 split TEV co-culture compound screen of the NIH Clinical Collection. The class given is cell-based, human. The text has this:
For our HTS‐compatible split TEV assay approach, human full‐length ERBB4‐Cyt1 was fused to the NTEV fragment, a TEV protease cleavage site (tevS) and the artificial co‐transcriptional activator Gal4‐VP16 (ERBB4‐NTEV‐tevS‐GV); human PIK3R1 was fused to the CTEV fragment (PIK3R1‐CTEV) (Fig 1A). Upon ERBB4 activation, PIK3R1 is recruited to the receptor resulting in a reconstituted protease activity that cleaves off GV. In turn, released GV translocates to the nucleus and binds to upstream activating sequences (UAS) to activate the transcription of a firefly luciferase reporter gene (Fig 1A). A constitutively expressed Renilla luciferase driven under the control of the human thymidine kinase (TK) promoter was used as control to address off‐target effects related to toxicity.
For small molecule screening, the NIH‐NCC Clinical Collection library (sets NCC‐003 and NCC‐201) was used containing 727 small molecules that are FDA‐approved and have a history in clinical applications (www.nihclinicalcollection.com). A Hamilton Labstar robot connected to 37 and 4°C incubators for cell incubation and compound storage and application (Cytomat automated incubator, ThermoScientific) and to a luciferase reader (Berthold Technologies) was used to automatically perform the screening. […] Each batch was screened three times.
For one 96‐well plate, 4 × 10^6 PC12 cells were harvested and diluted in 5 ml assay medium (phenol red‐free DMEM (low glucose, Life Technologies), 10% FCS, 5% HS, no antibiotics). The split TEV assay plasmids (2 μg pcDNA3_ERBB4‐NTEV‐tevS‐GV‐2xHA, 2 μg pTag4C_PIK3R1‐CTEV‐2xHA, 2 μg p5xUAS_firefly luciferase, 2 μg pTK_Renilla luciferase, and 0.5 μg pECFP‐C1 for examining transfection efficiency) were diluted in 2.5 ml Opti‐MEM (Life Technologies) and vortexed. In parallel, 20 μl of the transfection reagent Lipofectamine 2000 was diluted in 2.5 ml Opti‐MEM and vortexed.
For plating of one 96‐well plate, 10 ml suspension, containing the 4 × 10^6 in solution‐transfected cells, was placed in the bubble paddle reservoir of the Hamilton Cellstar robot. 100 μl was seeded per 96‐well using the 96‐tip pipetting head. The homogeneity of the cell suspension was guaranteed over time by mild stirring using the paddling device inside the reservoir. For five plates each, 50 ml of additional cell suspension was used to allow for losses of inaccessible volume.
The cells were allowed to express the plasmids for 24 h before compounds were added. Proper expression and transfection efficiency were verified by ECFP expression on a clear control plate. The compounds were applied in a final concentration of 10 μM using DMSO as diluent. […] Thirty minutes later, 10,000 Nrg1‐expressing PC12 cells in 100 μl assay medium were seeded on top. 24 h after addition of the compounds, the cells were lysed using 40 μl Passive Lysis buffer (Promega) and subjected to a Dual Luciferase Assay (Promega) according to the manufacturer's instructions. The data were analyzed in R Bioconductor using the package cellHTS2 (http://www.bioconductor.org/packages/devel/bioc/html/cellHTS2.html), assessed using the z‐score, and visualized using the program Mondrian (http://stats.math.uni-augsburg.de/mondrian/).

[1] abbreviates: compound screen of the NIH Clinical Collection, sheet raw data NCC-003, compounds ranked by Z-score.
[2] abbreviates: compounds at 10 μM, 24 h, PC12 split TEV assay cells co-cultured with Nrg1-expressing PC12 cells, analysed with cellHTS2.
[3] abbreviates: NIH Clinical Collection NCC-003 raw data, compounds ranked by Z-score, 'flagged' given instead of a Z-score.

Under setting [1], `N#Cc1ccc(C(c2ccc(C#N)cc2)n2cncn2)cc1` [LETROZOLE] showed a Z-SCORE of -1.06.
Still for that read-out and setting: as for `c1cncc([C@@H]2CCCN2)c1` [Nornicotine], the figure is 0.27.
Under setting [2], `CO/N=C(\C(=O)N[C@@H]1C(=O)N2C(C(=O)O)=C(COC(C)=O)CS[C@H]12)c1csc(N)n1` [CEFOTAXIME SODIUM SALT, reference compound] displayed a Z-SCORE of -0.2.
Compound `CNCC[C@@H](Oc1ccccc1C)c1ccccc1` [ATOMOXETINE HCl] yielded a Z-SCORE under setting [1] of 0.83.
On the same count and under the same terms, next, `CCC1=C(C)CN(C(=O)NCCc2ccc(S(=O)(=O)NC(=O)N[C@H]3CC[C@H](C)CC3)cc2)C1=O` [GLIMEPIRIDE]: 0.02; `Cc1cccc(Nc2ccncc2S(=O)(=O)NC(=O)NC(C)C)c1` [TORASEMIDE]: 0.4.
Regarding `CC1=C(C/C=C(\C)CCC[C@H](C)CCC[C@H](C)CCCC(C)C)C(=O)c2ccccc2C1=O` [Phylloquinone, reference compound], the Z-SCORE under setting [2] is recorded as -0.1.
In the case of `c1ccc(-c2ccc(C(c3ccccc3)n3ccnc3)cc2)cc1` (stereo not drawn) [Bifonazole, reference compound], the Z-SCORE by setting is: under setting [3], -3.45; under setting [2], -3.45.
Consider `CCOC(=O)[C@H](CCc1ccccc1)N[C@@H](C)C(=O)N1CCC[C@H]1C(=O)O` [ENALAPRIL MALEATE, reference compound], for which, under setting [2], the Z-SCORE is reported as 0.
On the same count and under the same terms, as for `COC1=CC(=O)C[C@@H](C)[C@]12Oc1c(Cl)c(OC)cc(OC)c1C2=O` [Griseofulvin, reference compound], the figure is 0.64.
As to `CC(=O)NC[C@H]1CN(c2ccc(N3CCOCC3)c(F)c2)C(=O)O1` [LINEZOLID], the Z-SCORE under setting [3] is given as -1.43.
Under setting [1], `C/C=C1\[C@H]2C=C(C)C[C@]1(N)c1ccc(=O)[nH]c1C2` [HUPERZINE A] registered a Z-SCORE of -0.3.
Consider `CC(C)[C@]12O[C@H]1[C@@H]1O[C@]13[C@]1(O[C@H]1C[C@H]1C4=C(CC[C@@]13C)C(=O)OC4)[C@@H]2O` [TRIPTOLIDE], for which the Z-SCORE result under setting [3] is “flagged”.
With `CN(C)CCc1c[nH]c2ccc(Cn3cncn3)cc12` [RIZATRIPTAN BENZOATE], the Z-SCORE under setting [1] was -0.76.
Regarding `CC(C)/N=c1\cc2n(-c3ccc(Cl)cc3)c3ccccc3nc-2cc1Nc1ccc(Cl)cc1` [CLOFAZIMINE], under setting [3], the Z-SCORE entry is “flagged”.
The compound `O=c1[nH]cnc2c1ncn2[C@H]1CC[C@@H](CO)O1` [2',3'-DIDEOXYINOSINE] came in with a Z-SCORE under setting [1] of -0.13.
In the case of `CC[C@]1(O)C[C@H]2CN(CCc3c([nH]c4ccccc34)[C@@](C(=O)OC)(c3cc4c(cc3OC)N(C=O)[C@H]3[C@@](O)(C(=O)OC)[C@H](OC(C)=O)[C@]5(CC)C=CCN6CC[C@]43[C@@H]65)C2)C1` [VINCRISTINE SULFATE], the Z-SCORE entry under setting [3] is recorded as “flagged”.
Take `CC(C)NCC(O)COc1cccc2[nH]ccc12` (stereo not drawn) [PINDOLOL, reference compound]: under setting [2], the Z-SCORE came out at 6.52.
Under setting [1], `Nc1nc2ccc(Cl)cc2c2nc(-c3ccco3)nn12` [CGS 15943, reference compound] displayed a Z-SCORE of 6.59.
The same measure, in the same setting: as for `CN1C(=O)COc2c(C(=O)NC3CN4CCC3CC4)cc(Cl)cc21` (stereo not drawn) [Azasetron], the figure is 0.46.
`COc1ccc2cc(CCC(C)=O)ccc2c1` [NABUMETONE, reference compound]: the Z-SCORE under setting [2] came out at 1.61.
Under setting [2], “S(-)-Timolol maleate [reference compound]” yielded a Z-SCORE of -0.49.
`C#C[C@]1(O)CC[C@H]2[C@@H]3CCC4=CC(=O)CC[C@@H]4[C@H]3CC[C@@]21C` [19-Norethindrone, reference compound] came in with a Z-SCORE under setting [2] of 0.63.
In the case of `O=C1c2c(O)cc(O)cc2OC(c2ccc(O)c(O)c2)C1O` (stereo not drawn) [TAXIFOLIN-(+)], the Z-SCORE under setting [1] was 1.25.
Still for that read-out and setting: next, `COc1cc(-c2ccc(=O)[nH]n2)ccc1OC(F)F`: 0.32; `COC(=O)C1=C(C)NC(C)=C(C(=O)OCC(C)C)C1c1ccccc1[N+](=O)[O-]` (stereo not drawn) [NISOLDIPINE]: 2.32; `CN(CCO)CC(O)Cn1cnc2c1c(=O)n(C)c(=O)n2C.O=C(O)c1cccnc1` (stereo not drawn) [XANTHINOL NICOTINATE]: -0.46.
With `CN1CCN2c3ncccc3Cc3ccccc3C2C1` (stereo not drawn) [mirtazapine, reference compound], the Z-SCORE reads like this: under setting [1], -0.36; under setting [2], 0.65.
Take `CN(C)CCC=C1c2ccccc2CCc2ccccc21.Cl` [Annoyltin, reference compound]: the Z-SCORE under setting [2] is given as 0.33.
`O=C1c2cccc3c2[C@H](CCC3)CN1[C@@H]1CN2CCC1CC2` [PALONOSETRON HCl] had a Z-SCORE under setting [1] of 0.77.
Same read-out and setting: next, `O=C(CCCN1CC=C(n2c(=O)[nH]c3ccccc32)CC1)c1ccc(F)cc1` [DROPERIDOL]: -0.96.
As to `C=C(C)CN1CC[C@]23c4c5ccc(O)c4O[C@H]2c2[nH]c4ccccc4c2C[C@@]3(O)C1C5.Cl.O` [SDM25N], under setting [1], the Z-SCORE is on record as -0.11.
The same measure, in the same setting: as for `Cl.O=C(O)/C=C/c1ccc(Cn2ccnc2)cc1` [Ozagrel hydrochloride], the figure is 0.36.
`CC(=O)CCCCn1cnc2c1c(=O)n(C)c(=O)n2C` [LOMIFYLLINE] showed a Z-SCORE under setting [1] of -0.7.
On the same count and under the same terms, as for `C[C@]12CC[C@H](O)CC1=CC[C@@H]1[C@@H]2CC[C@@]2(C)[C@H]1CC[C@]2(C)O` [METHYLANDROSTENEDIOL], the figure is 0.32.
The compound `Nc1nc(N)nc(-c2cc(Cl)ccc2Cl)n1` [IRSOGLADINE MALEATE] gave a Z-SCORE under setting [3] of -1.2.
`CN1CCN(C2=Nc3ccccc3Oc3ccc(Cl)cc32)CC1` [Loxapine succinate] yielded a Z-SCORE under setting [3] of -1.14.
`CCCCNc1cc(C(=O)O)cc(S(N)(=O)=O)c1Oc1ccccc1` [BUMETANIDE, reference compound]: the Z-SCORE under setting [2] is -0.03.
In turn, `CNCC[C@H](Oc1cccc2ccccc12)c1cccs1` [Duloxetine] returned a Z-SCORE of -0.82.
On to `Cc1c(C(=O)NN2CCCCC2)nn(-c2ccc(Cl)cc2Cl)c1-c1ccc(I)cc1` [AM-251], for which the Z-SCORE under setting [1] is recorded as -0.56.
With `CN/C(=N/CCSCc1nc[nH]c1C)NC#N` [Cimetidine, reference compound], under setting [2], the Z-SCORE is reported as -0.45.
Same read-out and setting: as for `Cn1c(=O)c2[nH]cnc2n(C)c1=O` [Theophylline, reference compound], the figure is 2.57; as for `Oc1c(Cl)cc(Cl)c2cccnc12` [Chloroxine, reference compound], “flagged”.
Turning to `COc1ccc(CC2c3cc(OC)c(OC)cc3CC[N+]2(C)CCC(=O)OCCCCCOC(=O)CC[N+]2(C)CCc3cc(OC)c(OC)cc3C2Cc2ccc(OC)c(OC)c2)cc1OC` (stereo not drawn) [ATRACURIUM BESYLATE], the Z-SCORE under setting [1] was -0.66.
With `CN(C)CCOC(c1ccc(Cl)cc1)c1ccccn1` (stereo not drawn) [Carbinoxamine Maleate, reference compound], under setting [2], the Z-SCORE is recorded as -0.31.
In the case of `CC(C)NCC(O)COc1ccc(CCOCC2CC2)cc1` (stereo not drawn) [Betaxolol hydrochloride], under setting [1], the Z-SCORE is on record as 1.56.
Take `CN1CCN(CC/C=C2/c3ccccc3Sc3ccc(S(=O)(=O)N(C)C)cc32)CC1` [THIOTHIXENE, reference compound]: under setting [2], the Z-SCORE was determined as 1.3.
The same measure, in the same setting: next, `CC(C)(C(=O)c1cccnc1)c1cccnc1` [METYRAPONE, reference compound]: 0.48.
In turn, `CC1CNc2c(cccc2S(=O)(=O)N[C@@H](CCCNC(=N)N)C(=O)N2CC[C@@H](C)C[C@@H]2C(=O)O)C1` (stereo partly drawn) [ARGATROBAN] yielded a Z-SCORE under setting [1] of -0.29.
